According to PMC7918738, “Microtubule Destabilizing Sulfonamides as an Alternative to Taxane-Based Chemotherapy” (International Journal of Molecular Sciences, 2021):

Legend:
[1] = test system: SKOV3 ovarian carcinoma cells; set-up: method as in PMID 29291446; conditions: read-out: Antiproliferative IC50 SKOV3; cited from earlier work
[2] = test system: microtubule network of MCF7, SKOV3, and HeLa cells; assay: Immunofluorescence confocal microscopy of the microtubule network; type: cell-based, human; conditions: 72 h, 38 600 nM, 45 400 nM
Experimental: The effect of MDS 38 and 45 on the tubulin cytoskeleton was analyzed in MCF7, SKOV3, and HeLa cells after 72-h treatments. The microtubule network was visualized by confocal microscopy staining α-tubulin in green, and cell nuclei were stained in blue with DAPI (4’,6-diamidino-2-phenylindole) (Figure 4).
MCF7, SKOV-3, and HeLa cells were grown on glass coverslips coated with poly-L-lysine (12 mm diameter). To reach appropriate cell confluence, coverslips were manipulated in 6-well plates (3 coverslips/well) seeding 3 mL/well of cells in the exponential growth phase at 2 × 10^4 cells/mL. After 24 h incubation, cells were treated with selected compounds and incubated for 72 h. Cells were washed with PBS, fixed with 4% formaldehyde in PBS for 10 min, permeabilized with 0.5% Triton X-100 (Boehringer Mannheim, Ingelheim am Rhein, Germany) in PBS for 10 min and blocked with 10% BSA in PBS for 30 min. Microtubule detection was performed by incubation with anti-α-tubulin mouse monoclonal antibody (1:200 in 3% BSA/PBS) (Sigma-Aldrich) for 1.5 h. After PBS washing, coverslips were incubated with fluorescent secondary antibody Alexa Fluor 488 goat anti-mouse IgG (1:400 in 1% BSA/PBS) (Molecular Probes, Invitrogen, Thermo Fischer Scientific) for 1 h in darkness. […] Cells were analyzed by confocal microscopy using a LEICA SP5 microscope DMI-6000V model coupled to a LEICA LAS AF software computer.

Row | SMILES | IC50 [1] [nM] | Effect on the microtubule network (α-tubulin immunofluorescence) [2]
1 | COc1ccc(/C=C\c2cc(OC)c(OC)c(OC)c2)cc1O [Combretastatin A-4, reference compound] | 380 | –
2 | CNc1ccc(S(=O)(=O)N(C)c2cc(OC)c(OC)c(OC)c2)cc1 [Compound 38] | – | disrupted the microtubule system
3 | COc1ccc(S(=O)(=O)N(Cc2ccccc2)c2cc(OC)c(OC)c(OC)c2)cc1N [Compound 45] | – | disrupted the microtubule system
